Where no end group is shown, it is not given here.
Legend:
[1] = test system: D2F2 WT tumor cells; experiment: D2F2 WT tumor challenge in Balb/c mice; format: in vivo; settings: day 21 and day 28
Procedure: Balb/c mice 6-8 weeks old, were immunized with G1 and G2 mice were treated with anti-PD-1 mAb (29F.1A12) (G1) or anti-PD-L1 mAb (10F.9G2) (G2 or with MVF-PD-L1 vaccine constructs [PD-L1(92-110)(G3) PD-L1(130-147)(G4)] prior to tumor challenge. Similarly, G10, G11 and G12 are control groups and were not treated prior to tumor cell challenge. G13, G14 and G15 mice were immunized with 100 ug MVF-HER-2(266-296)+100 ug MVF-HER-2(597-626)+ISA720 per mouse for G13, 100 ug MVF-PD-1 (92-110)+100 ug MVF-HER-2(266-296)+100 ug MVF-HER-2(597-626)+ISA720 per mouse for G14 and 100 ug MVF-PD-L1 (130-147)+100 ug MVF-HER-2(266-296)+100 ug MVF-HER-2(597-626)+ISA720 per mouse for G15. The mice were immunized up to 4 times before tumor challenge. […] All the mice had been monitored at least twice per week, and the tumors were measured with calipers as data indicated.
The tumor volumes were measured by calipers and calculated by formula: (length×width2)/2. […] All the peptides immunized groups of mice are shown with less tumor burden than PBS group and mAbs treated groups as well.
G0, G1 and G2 are control groups, mice in these groups were not treated before tumor cells challenge. Following challenge with D2F2 WT tumor cells, G0 mice were treated with PBS (i.p.) twice per week start from day 2 post challenge served as negative control, G1 and G2 mice were treated with anti-PD-1 mAb (29F.1A12) or anti-PD-L1 mAb (10F.9G2), respectively. Treatment for G1 and G2 mouse groups was also started from day 2 post tumor challenge, with 100 ug administered/mouse twice a week. G1 and G2 served as positive control. […] All the mice had been monitored at least twice per week, and the tumors were measured with calipers as data indicated (FIG. 26).
Mice were immunized with designed peptides vaccines as descripted in FIG. 26, which indicated as 1Y, 2Y, 3Y and 4Y here and with 3 weeks apart. […] And the mice were monitor at least twice per week, and the tumors were measured as shown in the data figures.
The tumor volumes were measured by calipers and calculated by formula: (length×width2)/2. […]

[2] = target: T1, PD-1/PD-L1 interaction (Homo sapiens, UniProt Q9NZQ7); experiment: PD-1/PD-L1 blockade bioassay (Promega); format: cell-based; settings: antibodies from immunized rabbits, compared to Nivolumab and Atezolizumab
T1 construct: host or cells: PD-L1 aAPC/CHO-K1 cells and PD-1 effector cells
Procedure: The assay was performed following the manufacturer's protocol for the PD-1/PD-L1 blockade bioassay (Promega).
The bioluminescent cell-based PD-1/PD-L1 blockade bioassays provide a good option for rapid screening of therapeutic antibodies or other compounds developed to interfere with PD-1-signaling interaction. PD1/PD-L1 blockade assay was used to test the functionality of 3 anti-PD-L1 antibodies. It was observed that purified polyclonal anti-PD-L1 antibody from the rabbits was able to block PD1/PD-L1 interaction similar to commercial anti-human PD-L1 antibody (FIG. 12). […] In FIG. 12, we show the capacity of each of the PD-L1 vaccines to block the PD-1:PD-L1 interaction as compared to Nivolumab and Atezolizumab. Remarkably only PD-L1 130-147 antibodies were effective
The assay was performed following the manufacturer's protocol for the PD-1/PD-L1 blockade bioassay (Promega). In brief, 4×10^5 aAPC/CHO-K1 or PD-L1 aAPC/CHO-K1 cells were seeded into 96-well plates in RPMI-1640 with 10% FBS. After overnight culturing, the medium was aspirated, and serially diluted purified PD-L1 or PD-1 antibodies, as well as Nivolumab and Atezolizumab antibodies (as reference antibodies) were added. Next, PD-1 effector cells were co-cultured and plate was kept for 5 h at 37° C. in a humidified 5% CO2 incubator. Following mixing with Bio-Glo Reagent, the luminescence was measured with a luminescence plate reader, SpectraMax M3 plate reader (Molecular Devices).

[3] = test system: HER-2 positive breast cancer; settings: patients with untreated HER-2 positive breast cancer; pertuzumab added to docetaxel and trastuzumab vs without; cited from earlier work

T1 sequence (Q9NZQ7 19-290): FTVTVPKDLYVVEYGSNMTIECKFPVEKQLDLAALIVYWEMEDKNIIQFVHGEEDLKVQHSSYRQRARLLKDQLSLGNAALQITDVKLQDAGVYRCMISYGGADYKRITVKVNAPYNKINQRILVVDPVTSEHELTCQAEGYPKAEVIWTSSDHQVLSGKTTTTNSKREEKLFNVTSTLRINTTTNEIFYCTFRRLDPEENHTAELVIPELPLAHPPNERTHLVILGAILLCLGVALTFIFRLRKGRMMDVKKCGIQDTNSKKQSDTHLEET

Row | Substance | tumor volume [1] | blocking of PD-1/PD-L1 interaction [2] | overall survival [3] [months] | progression-free survival [3] [months]
1 | MVF-PD-1(92-110) (KLLSLIKGVIVHRLEGVEDCRFRVTQLPNGRDFHMSV-NH2) | smaller tumor volume than PBS negative control group and both of mAbs positive control groups | unable to block PD-1 and PD-L1 |  | 
2 | pertuzumab |  |  | 56.5 | 18.5

Reference: US12589143B2, “Human anti-PD-L1 peptide vaccines and methods of their use” (priority 2019, dated 2026)
